Measurements: ChEMBL document CHEMBL5096156, “A Review of Progress in Histone Deacetylase 6 Inhibitors Research: Structural Specificity and Functional Diversity” (J Med Chem, 2021)
pIC50: −log10 of the molar value. Values belong to the molecule of their own block, whether it stands above or below them.

Assays:
[1] = biological target: T1, Histone deacetylase 11 (Homo sapiens, UniProt Q96DB2); assay: Inhibition of full length human recombinant HDAC11 using RHKKAc-AMC fluorogenic peptide as substrate incubated for 2 hrs by microplate reader assay
T1 sequence (Q96DB2 whole entry): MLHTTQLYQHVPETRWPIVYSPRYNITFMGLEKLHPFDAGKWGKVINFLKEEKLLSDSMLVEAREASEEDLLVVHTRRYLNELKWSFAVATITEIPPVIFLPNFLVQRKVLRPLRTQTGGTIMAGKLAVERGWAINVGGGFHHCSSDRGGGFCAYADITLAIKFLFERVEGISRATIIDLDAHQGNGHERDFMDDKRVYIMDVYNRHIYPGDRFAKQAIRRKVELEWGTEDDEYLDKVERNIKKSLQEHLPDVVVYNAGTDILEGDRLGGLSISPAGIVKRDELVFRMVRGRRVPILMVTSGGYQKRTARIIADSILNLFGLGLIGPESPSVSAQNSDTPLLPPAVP

[2] = biological target: Histone deacetylase 5 (Homo sapiens, UniProt Q9UQL6); assay: Inhibition of full length human recombinant HDAC5 using Ac-LGK(TFA)-AMC fluorogenic peptide as substrate incubated for 2 hrs by microplate reader assay
Histone deacetylase 5, sequence (Q9UQL6 whole entry): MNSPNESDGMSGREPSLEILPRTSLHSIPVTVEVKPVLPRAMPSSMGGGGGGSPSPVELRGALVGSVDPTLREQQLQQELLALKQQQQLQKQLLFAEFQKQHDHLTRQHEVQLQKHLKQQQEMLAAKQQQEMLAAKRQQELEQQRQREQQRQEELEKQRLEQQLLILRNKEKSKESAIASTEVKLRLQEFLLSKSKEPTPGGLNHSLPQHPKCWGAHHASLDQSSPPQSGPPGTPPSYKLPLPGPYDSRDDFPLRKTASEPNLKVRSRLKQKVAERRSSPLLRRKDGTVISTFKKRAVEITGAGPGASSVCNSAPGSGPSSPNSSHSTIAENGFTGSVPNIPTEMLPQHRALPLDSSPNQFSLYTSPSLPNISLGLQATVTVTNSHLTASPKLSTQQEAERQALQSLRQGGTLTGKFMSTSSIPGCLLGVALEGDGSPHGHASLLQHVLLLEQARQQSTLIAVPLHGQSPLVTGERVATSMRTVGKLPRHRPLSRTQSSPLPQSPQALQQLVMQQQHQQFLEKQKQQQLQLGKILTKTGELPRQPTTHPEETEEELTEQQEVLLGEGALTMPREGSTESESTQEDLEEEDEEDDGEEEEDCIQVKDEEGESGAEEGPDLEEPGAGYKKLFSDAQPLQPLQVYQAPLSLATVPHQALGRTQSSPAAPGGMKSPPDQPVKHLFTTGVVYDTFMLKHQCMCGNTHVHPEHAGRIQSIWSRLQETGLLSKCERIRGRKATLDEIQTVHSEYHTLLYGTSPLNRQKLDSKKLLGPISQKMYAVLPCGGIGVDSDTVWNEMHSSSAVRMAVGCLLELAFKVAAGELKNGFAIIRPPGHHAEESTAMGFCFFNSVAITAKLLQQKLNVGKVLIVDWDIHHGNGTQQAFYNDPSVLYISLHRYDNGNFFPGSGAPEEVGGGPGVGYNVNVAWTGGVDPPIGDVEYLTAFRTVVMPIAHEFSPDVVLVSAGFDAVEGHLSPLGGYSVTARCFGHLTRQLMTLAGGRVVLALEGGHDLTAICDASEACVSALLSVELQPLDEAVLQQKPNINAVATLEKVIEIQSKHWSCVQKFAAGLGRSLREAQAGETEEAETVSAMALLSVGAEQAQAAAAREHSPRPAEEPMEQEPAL

[3] = biological target: T2, Histone deacetylase 7 (Homo sapiens, UniProt Q8WUI4); assay: Inhibition of full length human recombinant HDAC7 using Ac-LGK(TFA)-AMC fluorogenic peptide as substrate incubated for 2 hrs by microplate reader assay
T2 sequence (Q8WUI4 whole entry): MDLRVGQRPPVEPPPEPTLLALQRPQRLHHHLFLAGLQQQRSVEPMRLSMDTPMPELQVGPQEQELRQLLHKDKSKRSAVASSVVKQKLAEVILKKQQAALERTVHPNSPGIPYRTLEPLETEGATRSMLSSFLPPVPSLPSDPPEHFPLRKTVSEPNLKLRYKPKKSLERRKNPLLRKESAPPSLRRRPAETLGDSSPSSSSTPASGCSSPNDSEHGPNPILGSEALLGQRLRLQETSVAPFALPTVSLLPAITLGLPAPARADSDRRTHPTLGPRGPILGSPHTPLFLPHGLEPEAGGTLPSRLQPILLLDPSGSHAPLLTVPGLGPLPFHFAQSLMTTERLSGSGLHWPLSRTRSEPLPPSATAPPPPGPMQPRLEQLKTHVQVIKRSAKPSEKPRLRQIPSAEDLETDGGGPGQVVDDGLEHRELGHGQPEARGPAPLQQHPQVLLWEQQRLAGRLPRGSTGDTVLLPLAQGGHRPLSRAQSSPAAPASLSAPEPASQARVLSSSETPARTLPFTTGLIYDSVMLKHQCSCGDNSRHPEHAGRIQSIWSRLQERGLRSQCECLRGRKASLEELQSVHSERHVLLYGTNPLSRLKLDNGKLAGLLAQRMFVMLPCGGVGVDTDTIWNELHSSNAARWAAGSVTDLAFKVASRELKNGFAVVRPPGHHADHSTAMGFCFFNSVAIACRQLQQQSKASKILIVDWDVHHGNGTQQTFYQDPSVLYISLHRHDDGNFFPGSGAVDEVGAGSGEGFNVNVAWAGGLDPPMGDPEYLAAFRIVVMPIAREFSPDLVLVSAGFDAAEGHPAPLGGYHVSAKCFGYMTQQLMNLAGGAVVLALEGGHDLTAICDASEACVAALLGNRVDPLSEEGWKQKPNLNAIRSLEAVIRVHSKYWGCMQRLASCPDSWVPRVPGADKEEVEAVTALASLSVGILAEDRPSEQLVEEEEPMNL

[4] = biological target: T3, Histone deacetylase 8 (Homo sapiens, UniProt Q9BY41); assay: Inhibition of full length human recombinant HDAC8 using RHKKAcKAc-AMC fluorogenic peptide as substrate incubated for 2 hrs by microplate reader assay
T3 sequence (Q9BY41 whole entry): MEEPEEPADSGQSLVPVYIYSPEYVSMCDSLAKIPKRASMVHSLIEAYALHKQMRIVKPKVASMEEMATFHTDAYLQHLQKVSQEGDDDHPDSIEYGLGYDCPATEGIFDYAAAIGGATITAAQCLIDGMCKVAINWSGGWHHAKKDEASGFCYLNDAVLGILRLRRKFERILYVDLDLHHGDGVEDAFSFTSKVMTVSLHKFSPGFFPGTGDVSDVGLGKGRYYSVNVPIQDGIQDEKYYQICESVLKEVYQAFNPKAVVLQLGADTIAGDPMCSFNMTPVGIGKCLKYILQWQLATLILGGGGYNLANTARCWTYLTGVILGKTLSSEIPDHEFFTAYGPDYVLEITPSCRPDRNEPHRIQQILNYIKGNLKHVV

[5] = biological target: T4, Histone deacetylase 3 (Homo sapiens, UniProt O15379)
T4 sequence (O15379 whole entry): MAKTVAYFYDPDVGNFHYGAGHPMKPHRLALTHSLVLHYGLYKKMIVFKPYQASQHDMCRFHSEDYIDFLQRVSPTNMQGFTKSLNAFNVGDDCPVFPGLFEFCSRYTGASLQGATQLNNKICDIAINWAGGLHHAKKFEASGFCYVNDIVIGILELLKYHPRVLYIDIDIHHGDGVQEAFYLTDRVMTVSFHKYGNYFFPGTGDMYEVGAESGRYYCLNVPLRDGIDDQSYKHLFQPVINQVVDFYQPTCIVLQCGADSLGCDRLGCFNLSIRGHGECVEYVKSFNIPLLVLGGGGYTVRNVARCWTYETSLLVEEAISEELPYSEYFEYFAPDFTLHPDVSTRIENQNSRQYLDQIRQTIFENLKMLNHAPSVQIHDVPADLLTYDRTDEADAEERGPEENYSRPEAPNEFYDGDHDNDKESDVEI

[6] = biological target: T5, Protein deacetylase HDAC6 (Homo sapiens, UniProt Q9UBN7); assay: Inhibition of human recombinant HDAC6 using ZMAL -Z-(Ac)Lys-AMC fluorogenic substrate incubated for 30 mins by microplate reader assay
T5 sequence (Q9UBN7 whole entry): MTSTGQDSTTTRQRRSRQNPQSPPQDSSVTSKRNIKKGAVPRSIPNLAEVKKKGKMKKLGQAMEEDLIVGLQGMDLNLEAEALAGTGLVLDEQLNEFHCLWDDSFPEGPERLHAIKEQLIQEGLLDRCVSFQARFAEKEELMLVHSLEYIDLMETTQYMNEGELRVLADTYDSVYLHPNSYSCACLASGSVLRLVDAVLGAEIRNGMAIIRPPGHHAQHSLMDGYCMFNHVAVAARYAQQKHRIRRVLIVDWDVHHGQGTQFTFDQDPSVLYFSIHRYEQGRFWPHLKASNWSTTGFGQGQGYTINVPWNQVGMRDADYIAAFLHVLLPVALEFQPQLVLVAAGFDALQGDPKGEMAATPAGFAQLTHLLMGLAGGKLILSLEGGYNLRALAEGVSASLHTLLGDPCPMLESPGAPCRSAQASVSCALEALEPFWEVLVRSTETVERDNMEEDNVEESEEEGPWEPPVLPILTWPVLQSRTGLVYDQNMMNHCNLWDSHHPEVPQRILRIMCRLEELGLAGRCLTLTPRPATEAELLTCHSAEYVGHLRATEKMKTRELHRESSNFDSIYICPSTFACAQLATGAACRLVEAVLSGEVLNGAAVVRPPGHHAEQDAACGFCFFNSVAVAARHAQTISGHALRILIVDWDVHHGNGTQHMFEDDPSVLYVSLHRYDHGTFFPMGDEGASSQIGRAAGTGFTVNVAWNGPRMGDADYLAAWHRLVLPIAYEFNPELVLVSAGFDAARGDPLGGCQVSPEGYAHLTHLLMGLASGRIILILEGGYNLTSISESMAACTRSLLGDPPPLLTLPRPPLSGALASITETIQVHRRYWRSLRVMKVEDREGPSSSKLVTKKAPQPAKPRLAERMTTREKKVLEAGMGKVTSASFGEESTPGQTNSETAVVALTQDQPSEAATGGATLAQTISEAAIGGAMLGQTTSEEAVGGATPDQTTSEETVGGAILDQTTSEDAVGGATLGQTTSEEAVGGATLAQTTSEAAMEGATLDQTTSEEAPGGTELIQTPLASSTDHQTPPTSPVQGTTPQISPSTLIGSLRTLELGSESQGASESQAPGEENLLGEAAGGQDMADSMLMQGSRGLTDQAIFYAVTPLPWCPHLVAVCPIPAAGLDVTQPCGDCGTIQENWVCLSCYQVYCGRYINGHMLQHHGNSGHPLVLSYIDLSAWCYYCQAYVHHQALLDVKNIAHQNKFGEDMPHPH

[7] = biological target: T6, Histone deacetylase 1 (Homo sapiens, UniProt Q13547); assay: Inhibition of human recombinant HDAC1 using ZMAL -Z-(Ac)Lys-AMC fluorogenic substrate incubated for 30 mins by microplate reader assay
T6 sequence (Q13547 whole entry): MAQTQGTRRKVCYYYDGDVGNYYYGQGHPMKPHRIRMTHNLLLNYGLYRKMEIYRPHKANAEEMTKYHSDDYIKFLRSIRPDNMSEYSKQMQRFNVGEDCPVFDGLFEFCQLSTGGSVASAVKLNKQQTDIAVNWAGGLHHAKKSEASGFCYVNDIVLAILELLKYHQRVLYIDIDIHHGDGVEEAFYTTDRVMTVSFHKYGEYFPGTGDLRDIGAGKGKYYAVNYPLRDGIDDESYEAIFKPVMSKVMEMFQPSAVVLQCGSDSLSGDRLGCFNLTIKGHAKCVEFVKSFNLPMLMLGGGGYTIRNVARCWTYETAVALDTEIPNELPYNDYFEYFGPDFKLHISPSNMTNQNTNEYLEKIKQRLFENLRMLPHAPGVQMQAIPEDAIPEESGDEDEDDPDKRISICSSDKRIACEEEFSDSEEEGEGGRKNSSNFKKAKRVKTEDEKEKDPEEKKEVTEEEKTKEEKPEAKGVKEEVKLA

[8] = biological target: T6, Histone deacetylase 1; assay: Inhibition of HDAC1 (unknown origin)
[9] = biological target: T5, Protein deacetylase HDAC6; assay: Inhibition of HDAC6 (unknown origin)
[10] = biological target: T5, Protein deacetylase HDAC6; assay: Inhibition of human recombinant HDAC6 using BML-AK511 as substrate incubated for 60 mins by fluorimetric assay
[11] = biological target: T7, Polyamine deacetylase HDAC10 (Homo sapiens, UniProt Q969S8); assay: Inhibition of full length human recombinant HDAC10 expressed in baculovirus infected Sf9 cells using RHKKAc fluorogenic peptide as substrate incubated for 2 hrs
T7 sequence (Q969S8 whole entry): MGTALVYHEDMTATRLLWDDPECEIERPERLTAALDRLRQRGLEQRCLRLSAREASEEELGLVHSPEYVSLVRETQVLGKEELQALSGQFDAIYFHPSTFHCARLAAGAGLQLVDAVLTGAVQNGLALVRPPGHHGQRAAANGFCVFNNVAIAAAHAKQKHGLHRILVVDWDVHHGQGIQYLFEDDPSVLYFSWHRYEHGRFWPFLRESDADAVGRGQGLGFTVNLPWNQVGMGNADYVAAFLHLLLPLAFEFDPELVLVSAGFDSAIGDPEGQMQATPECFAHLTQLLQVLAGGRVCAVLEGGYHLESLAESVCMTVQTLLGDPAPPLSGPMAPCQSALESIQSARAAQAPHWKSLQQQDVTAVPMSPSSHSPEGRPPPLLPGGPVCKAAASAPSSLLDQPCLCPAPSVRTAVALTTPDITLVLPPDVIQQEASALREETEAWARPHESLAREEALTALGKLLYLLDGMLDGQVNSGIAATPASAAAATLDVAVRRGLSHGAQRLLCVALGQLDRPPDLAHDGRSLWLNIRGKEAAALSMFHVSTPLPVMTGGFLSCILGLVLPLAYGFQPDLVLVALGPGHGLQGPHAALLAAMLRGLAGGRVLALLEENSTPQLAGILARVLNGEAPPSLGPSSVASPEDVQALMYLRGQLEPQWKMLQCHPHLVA

[12] = biological target: T4, Histone deacetylase 3; assay: Inhibition of full length human recombinant HDAC3 expressed in baculovirus infected Sf9 cells using RHKKAc fluorogenic peptide as substrate incubated for 2 hrs
[13] = biological target: T6, Histone deacetylase 1; assay: Inhibition of full length human recombinant HDAC1 expressed in baculovirus infected Sf9 cells using RHKKAc fluorogenic peptide as substrate incubated for 2 hrs
[14] = biological target: Histone deacetylase 2 (Homo sapiens, UniProt Q92769); assay: Inhibition of full length human recombinant HDAC2 expressed in baculovirus infected Sf9 cells using RHKKAc fluorogenic peptide as substrate incubated for 2 hrs
Histone deacetylase 2, sequence (Q92769 whole entry): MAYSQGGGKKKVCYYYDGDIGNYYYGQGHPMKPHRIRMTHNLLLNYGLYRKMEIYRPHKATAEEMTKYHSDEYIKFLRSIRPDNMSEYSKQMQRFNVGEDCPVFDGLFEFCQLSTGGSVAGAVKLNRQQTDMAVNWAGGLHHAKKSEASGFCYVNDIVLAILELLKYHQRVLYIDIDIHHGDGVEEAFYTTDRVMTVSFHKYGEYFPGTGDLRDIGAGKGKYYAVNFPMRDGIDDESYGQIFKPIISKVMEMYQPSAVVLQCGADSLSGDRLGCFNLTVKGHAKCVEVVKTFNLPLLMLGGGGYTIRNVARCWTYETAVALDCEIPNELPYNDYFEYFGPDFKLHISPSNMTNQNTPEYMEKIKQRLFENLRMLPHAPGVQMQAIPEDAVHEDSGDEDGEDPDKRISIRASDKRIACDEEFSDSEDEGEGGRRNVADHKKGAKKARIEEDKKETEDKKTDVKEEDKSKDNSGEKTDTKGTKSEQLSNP

SMILES: CCN(CC)Cc1ccc(Cn2c(=O)c(OCc3ccc(C(=O)NO)cc3)c(-c3cccnc3)c3ccccc32)cc1
pIC50 [8]: 6.50
pIC50 [9]: 7.94

SMILES: O=S(=O)(N1CCN(C2COC2)CC1)N(Cc1ccc(-c2nnc(C(F)(F)F)o2)cn1)c1ccc(F)c(Cl)c1
pIC50 [10]: 7.85

SMILES: CC(C)(C)OC(=O)Nc1cccc(-c2cc(C(=O)NCCc3cc(C(=O)NO)no3)no2)c1
pIC50 [11]: < 4.30
pIC50 [12]: < 4.30
pIC50 [13]: < 4.30
pIC50 [14]: < 4.30

The remaining lines, values ahead:

pIC50 [1]: 5.24
pIC50 [2]: 5.39
pIC50 [3]: 5.34
pIC50 [4]: 5.43
pIC50 [5]: 4.53
SMILES: O=C(NO)c1ccc(CN2CCCc3cc(Cl)ccc32)cc1

pIC50 [6]: 7.24
pIC50 [7]: 5.66
SMILES: CCCC1=C(Nc2ccc(C(=O)NO)cc2)C2N=CC=CC2=N1 (centres undefined)
